Laboratory results reported in patent US8916564B2, “Substituted pyrido[1,2-a]pyrazines for the treatment of neurodegenerative and neurological disorders” (priority 2012, dated 2014).
pIC50: −log10 of the molar value.

Target: γ-secretase (Cricetulus griseus, UniProt G3HNF2)
Test: Cell-Based γ-Secretase Assay with ELISA Readout (production of amyloid beta protein Aβ(1-42))
Conditions: human WT-APP overexpressing CHO cells; Aβ(1-42) ELISA; geometric mean of 2-4 determinations (b: single determination; c: geometric mean of ≧5 determinations)
Protocol: The ability of compounds to modulate production of amyloid beta protein Aβ(1-42) was determined using human WT-APP overexpressing CHO cells. Cells were plated at 22,000 cells/100 μL well in 96 well tissue culture treated, clear plates (Falcon) in DMEM/F12 based medium and incubated for 24 hours at 37° C. […] Compounds were added in fresh medium to achieve 1% final DMSO. Appropriate vehicle or inhibitor controls were added into control wells individually to obtain minimum or maximum inhibition values, respectively, for the assay signal window before the plates were incubated for ˜24 hours at 37° C. This procedure produces conditioned media in each well which is tested for Aβ(1-42) levels in the ELISA detection step described next. The remaining cell cultures in each well are also tested for cell toxicity as described below.
Coating of ELISA assay plates was initiated by addition of 50 μL/well of an in-house Aβ(1-42) specific antibody at (3 μg/mL) in 0.1 M NaHCO3 (pH 9.0) into black 384-well Maxisorp® plates (Nunc) and incubated overnight at 4° C. […] Cell toxicity was also measured in the corresponding remaining cells after removal of the conditioned media for the Aβ(1-42) assay by a colorimetric cell proliferation assay (CellTiter 96®AQueous One Solution Cell Proliferation Assay, Promega) according to the manufacturer's instructions. […]

Cc1cn(-c2ccc3n(c2=O)CCN(CC2CC(c4ccc(Cl)c(C(F)(F)F)c4)=NO2)C3=O)cn1 (stereo not shown) [Example 32, 2-({3-[-chloro-3-(trifluoromethyl)phenyl]-4,5-dihydro-1,2-oxazol-5-yl}methyl)-7-(4-methyl-1H-imidazol-1-yl)-3,4-dihydro-2H-pyrido[1,2-a]pyrazine-1,6-dione]
pIC50: 6.37
